Source: patent publication US20230180804A1, “FLAVOR COMPOSITION, AND FOOD AND BEVERAGE” (TAKASAGO INTERNATIONAL CORPORATION, priority 2020, published 2023)

Tests used:
olfactory receptor OR9Q2 = biological target: T1, olfactory receptor OR9Q2 (Homo sapiens, UniProt Q8NGE9); experiment: OR9Q2 response inhibitory effect for p-cresol, luciferase reporter gene assay; type: cell-based; conditions: p-cresol 100 µM mixed with various concentrations of compound; cells expressing OR9Q2; ratio of Fold Increase value (FIGS. 1 to 11)
T1 construct: 20 N-terminal amino acid residues of bovine rhodopsin (Rho tag); expressed in transfected cells; host or cells: HEK293T
T1 sequence (Q8NGE9 1-314): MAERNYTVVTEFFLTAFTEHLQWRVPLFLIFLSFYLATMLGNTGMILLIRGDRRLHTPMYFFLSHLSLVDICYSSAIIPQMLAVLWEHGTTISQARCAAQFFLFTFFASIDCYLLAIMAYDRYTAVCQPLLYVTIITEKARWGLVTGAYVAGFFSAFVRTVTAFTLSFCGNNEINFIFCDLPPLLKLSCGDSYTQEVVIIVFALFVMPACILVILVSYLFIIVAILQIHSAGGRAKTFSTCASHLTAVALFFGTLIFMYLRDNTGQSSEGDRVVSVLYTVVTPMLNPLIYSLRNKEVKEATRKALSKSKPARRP
Description: The human olfactory receptor gene was obtained by cloning from Human Genomic DNA: Female (Promega) by PCR method based on the sequence information registered in GenBank. The 20 N-terminal amino acid residues of bovine rhodopsin were incorporated into the pME18S vector, and the obtained human olfactory receptor gene was incorporated downstream thereof to obtain a human olfactory receptor gene expression vector.
In 10 µL of Opti-MEM I (gibco), 0.05 µg of human olfactory receptor gene expression vector, 0.01 µg of RTP1S vector, 0.01 µg firefly luciferase vector pGL4.29 (Promega) containing cAMP response element promoter, and 0.005 µg of Renilla luciferase vector pGL4.74 (Promega) containing thymidine kinase promoter were dissolved to prepare a gene solution (for one well). HEK293T cells were seeded at 100 µL each in a 96-well plate (Biocoat, Coming) at the number of cells reaching confluence after 24 hours, and a gene solution was added to each well by the lipofection method according to the usage of Lipofectamine 3000 to introduce genes into the cells, and the cells were cultured at 37° C. in a 5% carbon dioxide atmosphere for 24 hours.
After removing the culture medium, the resultant was prepared with CD293 (gibco) medium ([…] added) so as to have a concentration for measuring the aroma substance to be tested, 50 µL of which was added each and stimulated for 3 hours, and then luciferase activity was measured according to the method of using the Dual-Luciferase Reporter Assay System (Promega). The response intensity of the olfactory receptor polypeptide was expressed as a Fold Increase value obtained by dividing the luciferase activity produced by stimulating the aroma substance by the luciferase activity produced in the test system containing no aroma substance.
p-Cresol at 100 µM was mixed with various concentrations of 1-oxacycloheptadecan-7-en-2-one, 1-oxacycloheptadecan-8-en-2-one, isoambrettolide, pentalide, muscone, civetone, 8-2-decenolactone, cinnamic aldehyde, […], sclareolide, and ethyl maltol, and receptor responses were measured in cells expressing OR9Q2. The ratio of the Fold Increase value in the test in which each compound was mixed was calculated, where the Fold Increase value in the test in none of these compounds was mixed was set to 100. FIGS. 1 to 11 present the results.

[1] = Sensory evaluation of p-cresol odor masking in p-cresol-containing grated raw ginger; conditions: for p-Cresol Odor Intensity: grated ginger with 600 ppb p-cresol, average score of 9 panelists, scale 0-4
Description: To commercially available grated raw ginger, p-cresol adjusted to a concentration of 0.1% with 95% ethanol was added to a concentration of 600 ppb in the ginger. To this p-cresol-containing ginger, 1-oxacycloheptadecan-8-en-2-one was added at the concentrations presented in Table 16 to confirm the p-cresol odor intensity (masking effect) and the influence on the ginger flavor of each sample.
Nine skilled panelists were selected to perform the same sensory evaluation as in Example 1. The results are as in Table 16, presenting the average score of the evaluation results for each panelist.

[2] = Sensory evaluation of p-cresol odor masking in p-cresol-containing lemon dressing; conditions: lemon dressing with 500 ppb p-cresol; for p-Cresol Odor Intensity: average score of 9 panelists, scale 0-4
Description: To a commercially available lemon dressing, p-cresol adjusted to a concentration of 0.1% with 95% ethanol was added to 500 ppb in the lemon dressing. To this p-cresol-containing lemon dressing, l-oxacycloheptadecan-8-en-2-one was added at the concentrations presented in Table 18 to confirm the p-cresol odor intensity (masking effect) and the influence on the citrus flavor of each sample.
Nine skilled panelists were selected to perform the same sensory evaluation as in Example 1. The results are as in Table 18, presenting the average score of the evaluation results for each panelist.

[3] = Sensory evaluation of p-cresol odor masking in p-cresol-containing citrus-flavored beverage; conditions: for p-Cresol Odor Intensity: beverage with 50 ppb p-cresol, average score of 7 panelists, scale 0-4
Description: To 2 g of lemon flavor obtained by making lemon oil into an essence, purified water was added to adjust the total amount to 1000 ml. To this citrus-flavored beverage, p-cresol adjusted to a concentration of 1% by mass with 95% ethanol was added to 50 ppb in the citrus-flavored beverage. To this p-cresol-containing citrus-flavored beverage, 1-oxacycloheptadecan-7-en-2-one was added at the concentrations presented in Table 1 to confirm the p-cresol odor intensity (masking effect) and the influence on the citrus flavor of each sample.
For the test, seven skilled panelists were selected to perform sensory evaluation. The p-cresol odor intensity of the p-cresol-containing citrus-flavored beverage without added l-oxacycloheptadecan-7-en-2-one was determined as “Rating: 4,” and the p-cresol odor intensity of the p-cresol-free citrus-flavored beverage was determined as “Rating: 0,” and the p-cresol odor intensity (masking effect) of each sample was relatively evaluated according to the following evaluation criteria.
In addition, the influence of the citrus-flavored beverage on the citrus flavor was evaluated absolutely according to the following evaluation criteria for the presence or absence of off- flavor other than p-cresol odor and citrus flavor (Off-Flavor Intensity).
The results are as in Table 1, presenting the average score of the evaluation results for each panelist.

[4] = grated raw ginger with 600 ppb p-cresol
[5] = citrus-flavored beverage with 50 ppb p-cresol

Question: Which “effect of suppressing the response of OR9Q2 to p-cresol” value (olfactory receptor OR9Q2) does the source give for O=C1CCCCCCCCCCCCCCO1 [Pentalide, pentalide] here?
Answer: suppressing the response of OR9Q2 to p-cresol in a concentration-dependent manner

Question: And the “p-Cresol Odor Intensity” value ([1]; 1 ppb added)?
Answer: 1.3 points

Question: And the “p-Cresol Odor Intensity” value ([1]; 1 ppt added)?
Answer: 3.3 points

Question: And the “p-Cresol Odor Intensity” value ([1]; 10 ppb added)?
Answer: 1.1 points

Question: What about the “p-Cresol Odor Intensity” value ([1]; 10 ppt added) of the same compound?
Answer: 2.7 points

Question: And the “p-Cresol Odor Intensity” value ([1]; 100 ppt added)?
Answer: 1.6 points

Question: What about the “concentration at which the compound masks the p-cresol odor and does not affect the ginger flavor, lower limit” value [1, 4] of the same compound?
Answer: ≥ 10 ppt

Question: What about the “concentration at which the compound masks the p-cresol odor and does not affect the ginger flavor, upper limit” value [1, 4] of the same compound?
Answer: ≤ 1 ppb

Question: And the “p-Cresol Odor Intensity” value ([2]; 1 ppb added)?
Answer: 1.1 points

Question: And the “p-Cresol Odor Intensity” value ([2]; 1 ppt added)?
Answer: 3.6 points

Question: What about the “p-Cresol Odor Intensity” value ([2]; 10 ppb added) of the same compound?
Answer: 0.9 points

Question: What about the “p-Cresol Odor Intensity” value ([2]; 10 ppt added) of the same compound?
Answer: 2.8 points

Question: And the “p-Cresol Odor Intensity” value ([2]; 100 ppt added)?
Answer: 1.9 points

Question: What about the “concentration at which the compound masks the p-cresol odor and does not affect the citrus flavor, lower limit” value [2] of the same compound?
Answer: ≥ 10 ppt

Question: And the “concentration at which the compound masks the p-cresol odor and does not affect the citrus flavor, upper limit” value [2]?
Answer: ≤ 10 ppb

Question: And the “p-Cresol Odor Intensity” value ([3]; 0.01 ppt added)?
Answer: 3.6 points

Question: And the “p-Cresol Odor Intensity” value ([3]; 0.1 ppt added)?
Answer: 2.9 points

Question: What about the “p-Cresol Odor Intensity” value ([3]; 1 ppb added) of the same compound?
Answer: 1.4 points

Question: And the “p-Cresol Odor Intensity” value ([3]; 1 ppt added)?
Answer: 2.6 points

Question: What about the “p-Cresol Odor Intensity” value ([3]; 10 ppb added) of the same compound?
Answer: 1.0 points

Question: And the “p-Cresol Odor Intensity” value ([3]; 10 ppt added)?
Answer: 2.0 points

Question: What about the “p-Cresol Odor Intensity” value ([3]; 100 ppb added) of the same compound?
Answer: 0.6 points

Question: And the “p-Cresol Odor Intensity” value ([3]; 100 ppt added)?
Answer: 1.9 points

Question: And the “concentration at which the compound masks the p-cresol odor and does not affect the citrus flavor, lower limit” value [3, 5]?
Answer: ≥ 0.1 ppt

Question: What about the “concentration at which the compound masks the p-cresol odor and does not affect the citrus flavor, upper limit” value [3, 5] of the same compound?
Answer: ≤ 1 ppb
